From PubChem BioAssay (NCI)
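48-hour exposure; five concentrations; linearly interpolated endpoints. GI50: concentration for 50% inhibition of growth. TGI: concentration producing complete growth inhibition.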

How the values were obtained:
Experiment in all cases: inhibition of tumour cell growth, NCI panel, 48 h
[1] = test system: EKVX NSCLC
[2] = test system: SF-268 CNS
[3] = test system: OVCAR-8 ovarian
[4] = test system: SF-295 CNS
[5] = test system: NCI-H460 lung
[6] = test system: NCI-H226 lung
[7] = test system: HCT-15 colon
[8] = test system: OVCAR-5 ovarian
[9] = test system: SN12C renal
[10] = test system: DU-145 prostate

SMILES | GI50 [1] | TGI [1] | GI50 [2] | TGI [2] | GI50 [3] | TGI [3] | GI50 [4] | TGI [4] | GI50 [5] | TGI [5] | GI50 [6] | TGI [6] | GI50 [7] | TGI [7] | TGI [8] | TGI [9] | GI50 [8] | GI50 [9] | GI50 [10] | TGI [10]
COc1cc(C2C(C(=O)OCc3ccccc3)=C(C)NC(C)=C2C(=O)OCc2ccccc2)cc(OC)c1OC | 2.81 µM | > 100 µM | 5.17 µM | > 100 µM | 4.52 µM | > 100 µM | 2.86 µM | > 100 µM | 3.54 µM | > 100 µM | 2.41 µM | > 100 µM | – | – | – | – | – | – | – | –
COc1ccc2c([nH]c3cc(O)c(C)cc32)c1CC=C(C)C | – | – | 9.66 µM | > 25 µM | – | 10.4 µM | – | – | 5.56 µM | 14.1 µM | – | > 25 µM | 5.14 µM | > 25 µM | > 25 µM | 10.8 µM | – | – | – | –
N#CC(C(=O)C(=O)Nc1ccc(Cl)c(Cl)c1)c1ccc(Cl)cc1 (stereo unspecified) | – | > 100 µM | – | > 100 µM | – | > 100 µM | – | > 100 µM | – | 96.7 µM | – | > 100 µM | – | > 100 µM | > 100 µM | > 100 µM | – | – | – | –
CCOC(=O)/C(=C/c1ccc(Cl)cc1)N(CC)CC | – | > 100 µM | – | > 100 µM | – | > 100 µM | – | > 100 µM | – | > 100 µM | – | > 100 µM | – | > 100 µM | > 100 µM | > 100 µM | – | – | – | –
O=c1nc(-c2ccccc2)scc1-c1ccccc1 | – | > 100 µM | – | > 100 µM | – | > 100 µM | – | > 100 µM | – | > 100 µM | – | > 100 µM | – | > 100 µM | – | > 100 µM | – | – | – | –
CCC[CH2][Ge]([CH2]CCC)([CH2]CCC)[O]C(=O)C(OC(C)=O)c1ccccc1 (stereo unspecified) | – | 9.37 µM | 1.46 µM | 27.8 µM | 9.77 µM | 22.8 µM | 4.02 µM | 23.3 µM | 1.24 µM | 20 µM | 0.351 µM | 19.7 µM | 1.73 µM | 14.5 µM | 17.5 µM | 24.9 µM | 3.36 µM | 7.7 µM | – | –
Cc1cn2c(/C=N/N=C(N)N)c(-c3cc(Cl)sc3Cl)nc2s1 | – | – | – | – | 1.19 µM | 2.9 µM | – | – | 1.74 µM | > 50 µM | – | – | 1.84 µM | 8.55 µM | 1.59 µM | – | 0.886 µM | – | – | –
CC1=C2[C@@H](c3ccccc3)C3C=CC2(c2ccccc23)N(C(=O)Nc2cccc3ccccc23)C1=O (stereo partly specified) | – | > 100 µM | – | > 100 µM | – | > 100 µM | – | > 100 µM | – | – | – | – | – | > 100 µM | > 100 µM | > 100 µM | – | – | – | –
O=C1C(Cl)=C(Nc2cccc(O)c2)C(=O)N1c1ccc(Cl)cc1Cl | 57.3 µM | > 100 µM | 28.4 µM | > 100 µM | 28 µM | 64.2 µM | 27.2 µM | 86 µM | 27.5 µM | > 100 µM | – | – | 29.4 µM | > 100 µM | > 100 µM | 35.9 µM | 40.2 µM | 17.1 µM | 23.1 µM | 90.5 µM
Cc1ccc(C(O)/C(=N/N)c2nc3ccc([N+](=O)[O-])cc3[nH]c2=O)cc1 (stereo unspecified) | – | – | – | > 100 µM | – | > 100 µM | – | > 100 µM | – | > 100 µM | – | > 100 µM | – | > 100 µM | > 100 µM | > 100 µM | – | – | – | –
C[CH2][Sn]([Cl])([CH2]C)[CH2]C | 1.06 µM | 11.6 µM | 1.59 µM | 7.94 µM | 1.69 µM | 4.35 µM | 1.41 µM | 3.92 µM | 1.67 µM | 5.44 µM | 2.48 µM | 5.36 µM | 0.637 µM | 5.79 µM | 8.33 µM | 3.47 µM | 3.33 µM | 0.841 µM | – | –
C[C@]12CC/C(=N\OC(=O)Nc3ccccc3)C=C1CC[C@@H]1C2CC[C@@]2(C)C1CC[C@@H]2OC(=O)Nc1ccccc1 (stereo partly specified) | – | > 100 µM | – | > 100 µM | – | > 100 µM | – | > 100 µM | – | > 100 µM | – | – | – | 14.2 µM | > 100 µM | 30.8 µM | – | – | – | –
N#Cc1nc(Nc2ccc(Cl)cc2)sc1N | – | 83.2 µM | – | > 77.9 µM | – | > 79.4 µM | – | 42 µM | – | > 74.7 µM | – | > 71.7 µM | – | > 94.6 µM | > 46.4 µM | > 69.1 µM | – | – | – | –
COc1cccc(N2C(=O)[C@H]3[C@H]4CC(C(C)(C)C)CC[C@H]4c4c([nH]c5ccccc45)[C@H]3C2=O)c1 (stereo partly specified) | – | 40.6 µM | – | 54.7 µM | – | 29.7 µM | – | 29.2 µM | – | – | – | 40.3 µM | – | > 100 µM | – | 26.5 µM | – | – | – | –
C/C=C/C=C\C(=O)C1c2cccc(O)c2C(=O)c2c(O)cc(C)cc21 (stereo unspecified) | – | 13.4 µM | – | 2.05 µM | – | 3.19 µM | – | 2.25 µM | – | 1.47 µM | – | 2.57 µM | – | 3.6 µM | 3.33 µM | 5.74 µM | – | – | – | –
CO[C@]12CCC(=O)N1C=Cc1c2[nH]c2ccccc12 | – | > 100 µM | – | > 100 µM | – | > 100 µM | – | > 100 µM | – | > 100 µM | – | > 100 µM | – | > 100 µM | > 100 µM | – | – | – | – | –
COC(=O)C1=C(C)N(NC(=O)c2cccc(Cl)c2)C(C)(O)C12CCOC2=O (stereo unspecified) | – | > 100 µM | – | > 100 µM | – | > 100 µM | – | > 100 µM | – | > 100 µM | – | > 100 µM | – | > 100 µM | > 100 µM | > 100 µM | – | – | – | –
CCOC1=C2C(C)(CCC3[C@@]4(C)C=CC(=O)C(C)(C)C4CC(O)[C@@]23C)C(c2ccoc2)C1=O (stereo partly specified) | – | 67.7 µM | – | > 100 µM | – | 44.3 µM | – | 46.5 µM | – | 28.4 µM | – | 55.4 µM | – | 27.5 µM | 36 µM | 58 µM | – | – | – | –
CC(=O)Nc1ccc(S(=O)(=O)c2ccc(NC(C)=O)cc2)cc1 | 64 µM | > 100 µM | – | – | > 100 µM | > 100 µM | – | – | > 100 µM | > 100 µM | > 100 µM | > 100 µM | > 100 µM | > 100 µM | > 100 µM | > 100 µM | > 100 µM | > 100 µM | > 100 µM | > 100 µM
O=[N+]([O-])c1cc([N+](=O)[O-])c(C(Cl)C(Cl)c2ccccc2)cc1C(Cl)C(Cl)c1ccccc1 (stereo unspecified) | – | 4.28 µM | – | 4.02 µM | – | 4.62 µM | – | 5.17 µM | – | – | – | 5.18 µM | – | 3.12 µM | 4.43 µM | 3.49 µM | – | – | – | –
NC(=O)OCC(COc1ccc(Cl)cc1)OC(=O)c1cc([N+](=O)[O-])cc([N+](=O)[O-])c1 (stereo unspecified) | – | > 100 µM | – | > 100 µM | – | > 100 µM | – | > 100 µM | – | > 100 µM | – | > 100 µM | – | > 100 µM | > 100 µM | > 100 µM | – | – | – | –
